Measured values from ChEMBL document CHEMBL4507322, “Data for DCP probe (R)-ZINC-3573” (2021).

How the values were obtained:
[1] = target: 5-hydroxytryptamine receptor 1A (Homo sapiens, UniProt P08908); assay: GPCRScan assay: inhibition of 5-HT1A; parameters: radioligand conc. used [nm] 0.5 – 1.0, parental cells stable CHO
[2] = target: T1, 5-hydroxytryptamine receptor 1B (Homo sapiens, UniProt P28222); assay: GPCRScan assay: inhibition of 5-HT1B; parameters: radioligand conc. used [nm] 0.6 – 1.5, parental cells stable HEK
T1 sequence (P28222 whole entry): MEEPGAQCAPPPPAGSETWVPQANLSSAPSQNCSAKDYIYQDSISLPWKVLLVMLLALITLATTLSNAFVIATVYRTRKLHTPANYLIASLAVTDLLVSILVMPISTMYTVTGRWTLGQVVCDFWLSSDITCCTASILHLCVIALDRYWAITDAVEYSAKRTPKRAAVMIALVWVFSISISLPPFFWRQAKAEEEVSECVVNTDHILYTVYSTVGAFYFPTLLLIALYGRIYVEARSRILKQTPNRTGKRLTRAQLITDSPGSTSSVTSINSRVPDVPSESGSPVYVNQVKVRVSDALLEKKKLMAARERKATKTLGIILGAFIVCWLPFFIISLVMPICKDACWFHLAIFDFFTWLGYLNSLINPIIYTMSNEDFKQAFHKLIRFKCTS

[3] = target: T2, 5-hydroxytryptamine receptor 1D (Homo sapiens, UniProt P28221); assay: GPCRScan assay: inhibition of 5-HT1D; parameters: radioligand conc. used [nm] 1.0 – 2.0, parental cells HEKT
T2 sequence (P28221 whole entry): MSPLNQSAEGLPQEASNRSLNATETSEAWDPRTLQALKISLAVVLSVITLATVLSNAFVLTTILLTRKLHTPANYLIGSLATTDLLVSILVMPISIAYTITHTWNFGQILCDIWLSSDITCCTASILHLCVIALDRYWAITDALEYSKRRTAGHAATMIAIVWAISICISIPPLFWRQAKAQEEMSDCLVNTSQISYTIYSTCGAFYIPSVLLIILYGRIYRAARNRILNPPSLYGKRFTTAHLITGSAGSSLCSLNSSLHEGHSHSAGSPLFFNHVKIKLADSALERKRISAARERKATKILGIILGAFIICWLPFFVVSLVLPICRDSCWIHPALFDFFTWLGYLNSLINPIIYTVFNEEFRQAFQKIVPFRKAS

[4] = target: T3, 5-hydroxytryptamine receptor 3A (Homo sapiens, UniProt P46098); assay: GPCRScan assay: inhibition of 5-HT3; parameters: radioligand conc. used [nm] 1.0 – 2.0, parental cells HEKT
T3 sequence (P46098 whole entry): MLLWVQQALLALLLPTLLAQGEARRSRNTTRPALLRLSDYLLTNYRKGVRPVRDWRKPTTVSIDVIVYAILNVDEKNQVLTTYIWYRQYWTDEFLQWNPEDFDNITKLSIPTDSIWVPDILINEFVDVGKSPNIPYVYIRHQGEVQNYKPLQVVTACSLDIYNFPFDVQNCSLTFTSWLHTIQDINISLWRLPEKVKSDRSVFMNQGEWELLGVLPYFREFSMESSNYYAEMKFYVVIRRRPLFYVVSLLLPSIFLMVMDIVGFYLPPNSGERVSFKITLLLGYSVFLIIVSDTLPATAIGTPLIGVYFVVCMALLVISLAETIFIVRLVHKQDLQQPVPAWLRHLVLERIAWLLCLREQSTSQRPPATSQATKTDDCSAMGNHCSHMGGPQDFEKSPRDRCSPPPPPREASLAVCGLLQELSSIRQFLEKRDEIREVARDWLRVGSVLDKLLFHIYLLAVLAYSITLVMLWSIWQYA

[5] = target: T4, 5-hydroxytryptamine receptor 6 (Homo sapiens, UniProt P50406); assay: GPCRScan assay: inhibition of 5-HT6; parameters: radioligand conc. used [nm] 2.0 – 4.0, parental cells stable HEK
T4 sequence (P50406 whole entry): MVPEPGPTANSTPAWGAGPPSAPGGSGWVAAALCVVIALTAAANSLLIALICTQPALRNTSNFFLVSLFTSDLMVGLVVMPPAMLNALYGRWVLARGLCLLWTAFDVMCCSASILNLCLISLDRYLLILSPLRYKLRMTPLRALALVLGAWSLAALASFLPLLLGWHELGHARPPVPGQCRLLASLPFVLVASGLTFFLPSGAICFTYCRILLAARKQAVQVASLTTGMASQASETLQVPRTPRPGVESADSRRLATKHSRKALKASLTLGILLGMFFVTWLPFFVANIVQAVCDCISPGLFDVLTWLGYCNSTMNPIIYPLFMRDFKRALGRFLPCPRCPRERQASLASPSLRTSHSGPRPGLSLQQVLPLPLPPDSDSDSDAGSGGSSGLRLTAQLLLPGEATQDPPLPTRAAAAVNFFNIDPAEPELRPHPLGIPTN

D(2) dopamine receptor [6] = target: T5, D(2) dopamine receptor (Homo sapiens, UniProt P14416); assay: GPCRScan assay: inhibition of D2; parameters: radioligand conc. used [nm] 0.4 – 1.0, parental cells stable fibroblast
T5 sequence (P14416 whole entry): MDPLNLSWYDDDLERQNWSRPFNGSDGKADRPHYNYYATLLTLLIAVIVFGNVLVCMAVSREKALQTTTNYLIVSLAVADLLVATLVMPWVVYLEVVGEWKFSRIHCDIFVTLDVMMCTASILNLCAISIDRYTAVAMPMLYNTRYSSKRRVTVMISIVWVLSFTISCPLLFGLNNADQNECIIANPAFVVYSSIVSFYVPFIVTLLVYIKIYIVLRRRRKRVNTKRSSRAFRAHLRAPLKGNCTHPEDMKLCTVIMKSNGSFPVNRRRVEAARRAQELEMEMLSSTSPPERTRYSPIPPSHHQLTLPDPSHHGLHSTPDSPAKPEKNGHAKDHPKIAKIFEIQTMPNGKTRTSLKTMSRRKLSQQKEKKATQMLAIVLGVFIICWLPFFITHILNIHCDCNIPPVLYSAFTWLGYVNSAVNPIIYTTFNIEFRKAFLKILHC

[7] = target: T6, Sodium-dependent dopamine transporter (Homo sapiens, UniProt Q01959); assay: GPCRScan assay: inhibition of DAT; parameters: radioligand conc. used [nm] 3.6 – 16.0, parental cells stable HEK
T6 sequence (Q01959 whole entry): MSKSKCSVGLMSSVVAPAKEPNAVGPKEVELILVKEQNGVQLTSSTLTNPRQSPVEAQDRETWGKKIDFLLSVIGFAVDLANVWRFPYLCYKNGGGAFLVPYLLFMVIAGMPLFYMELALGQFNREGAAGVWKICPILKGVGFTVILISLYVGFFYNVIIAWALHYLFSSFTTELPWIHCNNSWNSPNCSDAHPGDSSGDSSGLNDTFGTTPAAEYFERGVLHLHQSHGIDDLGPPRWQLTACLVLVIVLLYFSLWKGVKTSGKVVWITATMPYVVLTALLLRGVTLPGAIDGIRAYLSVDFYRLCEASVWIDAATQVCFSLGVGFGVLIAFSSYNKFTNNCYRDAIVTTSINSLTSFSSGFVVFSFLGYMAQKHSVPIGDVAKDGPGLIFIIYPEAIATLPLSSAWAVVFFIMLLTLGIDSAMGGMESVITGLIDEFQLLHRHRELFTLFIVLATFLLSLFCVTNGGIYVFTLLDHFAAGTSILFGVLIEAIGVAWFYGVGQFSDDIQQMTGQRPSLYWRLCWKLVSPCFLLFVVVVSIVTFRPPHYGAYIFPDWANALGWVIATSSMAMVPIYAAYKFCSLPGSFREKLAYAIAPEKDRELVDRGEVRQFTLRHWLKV

[8] = target: GABA-A receptor; anion channel; assay: GPCRScan assay: inhibition of GABAA/BZP; format: protein-complex assay, Rattus norvegicus; parameters: radioligand conc. used [nm] 0.6 – 4.0, parental cells brain tissue
[9] = target: T7, Sigma intracellular receptor 2 (Homo sapiens, UniProt Q5BJF2); assay: GPCRScan assay: inhibition of Sigma 2; parameters: radioligand conc. used [nm] 5.0, parental cells HEKT
T7 sequence (Q5BJF2 whole entry): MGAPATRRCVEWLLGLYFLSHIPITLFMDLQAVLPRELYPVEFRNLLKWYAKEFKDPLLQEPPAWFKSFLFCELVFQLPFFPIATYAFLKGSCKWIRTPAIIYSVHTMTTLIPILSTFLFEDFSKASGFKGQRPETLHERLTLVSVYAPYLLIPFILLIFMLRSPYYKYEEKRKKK

[10] = target: 5-hydroxytryptamine receptor 1A (Homo sapiens) (UniProt P08908); settings: Compound concentration 10.0 uM
[11] = target: T1, 5-hydroxytryptamine receptor 1B; settings: Compound concentration 10.0 uM
[12] = target: T2, 5-hydroxytryptamine receptor 1D; settings: Compound concentration 10.0 uM
[13] = target: 5-hydroxytryptamine receptor 1E (Homo sapiens) (UniProt P28566); settings: Compound concentration 10.0 uM
[14] = target: 5-hydroxytryptamine receptor 2A (Homo sapiens) (UniProt P28223); settings: Compound concentration 10.0 uM
[15] = target: 5-hydroxytryptamine receptor 2B (Homo sapiens) (UniProt P41595); settings: Compound concentration 10.0 uM
5-hydroxytryptamine receptor 2B (Homo sapiens), sequence (P41595 whole entry): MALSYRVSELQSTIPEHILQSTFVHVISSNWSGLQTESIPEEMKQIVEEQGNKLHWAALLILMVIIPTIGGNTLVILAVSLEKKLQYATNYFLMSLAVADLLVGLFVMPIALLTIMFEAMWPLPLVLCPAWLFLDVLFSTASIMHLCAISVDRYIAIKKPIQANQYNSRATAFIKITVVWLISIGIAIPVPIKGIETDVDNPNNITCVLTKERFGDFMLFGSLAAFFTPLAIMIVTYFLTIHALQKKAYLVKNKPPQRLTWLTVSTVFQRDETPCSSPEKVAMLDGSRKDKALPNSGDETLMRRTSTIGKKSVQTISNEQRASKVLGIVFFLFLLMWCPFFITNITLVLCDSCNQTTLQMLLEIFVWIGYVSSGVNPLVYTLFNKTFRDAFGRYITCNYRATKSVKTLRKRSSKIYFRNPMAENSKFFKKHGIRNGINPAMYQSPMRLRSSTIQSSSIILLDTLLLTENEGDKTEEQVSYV

[16] = target: 5-hydroxytryptamine receptor 2C (Homo sapiens) (UniProt P28335); settings: Compound concentration 10.0 uM
[17] = target: 5-hydroxytryptamine receptor 3A (Homo sapiens) (UniProt P46098); settings: Compound concentration 10.0 uM
[18] = target: 5-hydroxytryptamine receptor 5A (Homo sapiens) (UniProt P47898); settings: Compound concentration 10.0 uM
[19] = target: T4, 5-hydroxytryptamine receptor 6; settings: Compound concentration 10.0 uM
[20] = target: 5-hydroxytryptamine receptor 7 (Homo sapiens) (UniProt P34969); settings: Compound concentration 10.0 uM
[21] = target: D(1A) dopamine receptor (Homo sapiens) (UniProt P21728); settings: Compound concentration 10.0 uM
D(2) dopamine receptor [22] = target: T5, D(2) dopamine receptor; settings: Compound concentration 10.0 uM
[23] = target: D(3) dopamine receptor (Homo sapiens) (UniProt P35462); settings: Compound concentration 10.0 uM
[24] = target: D(4) dopamine receptor (Homo sapiens) (UniProt P21917); settings: Compound concentration 10.0 uM
[25] = target: D(1B) dopamine receptor (Homo sapiens) (UniProt P21918); settings: Compound concentration 10.0 uM
[26] = target: Sodium-dependent serotonin transporter (Homo sapiens) (UniProt P31645); settings: Compound concentration 10.0 uM
[27] = target: Sodium-dependent noradrenaline transporter (Homo sapiens) (UniProt P23975); settings: Compound concentration 10.0 uM
[28] = target: T6, Sodium-dependent dopamine transporter; settings: Compound concentration 10.0 uM
[29] = target: Mu-type opioid receptor (Homo sapiens) (UniProt P35372); settings: Compound concentration 10.0 uM
[30] = target: Delta-type opioid receptor (Homo sapiens) (UniProt P41143); settings: Compound concentration 10.0 uM
[31] = target: Kappa-type opioid receptor (Homo sapiens) (UniProt P41145); settings: Compound concentration 10.0 uM
[32] = target: T8, GABA-A receptor; anion channel (Rattus norvegicus) (UniProt O09028+P15431+P18506+P18508+P19969+P20236+P23574+P23576+P28471+P28473+P30191+P62813+P63079+P63138+Q91ZM7+Q9ES14); settings: Compound concentration 10.0 uM
[33] = target: Histamine H1 receptor (Homo sapiens) (UniProt P35367); settings: Compound concentration 10.0 uM
Histamine H1 receptor (Homo sapiens), sequence (P35367 whole entry): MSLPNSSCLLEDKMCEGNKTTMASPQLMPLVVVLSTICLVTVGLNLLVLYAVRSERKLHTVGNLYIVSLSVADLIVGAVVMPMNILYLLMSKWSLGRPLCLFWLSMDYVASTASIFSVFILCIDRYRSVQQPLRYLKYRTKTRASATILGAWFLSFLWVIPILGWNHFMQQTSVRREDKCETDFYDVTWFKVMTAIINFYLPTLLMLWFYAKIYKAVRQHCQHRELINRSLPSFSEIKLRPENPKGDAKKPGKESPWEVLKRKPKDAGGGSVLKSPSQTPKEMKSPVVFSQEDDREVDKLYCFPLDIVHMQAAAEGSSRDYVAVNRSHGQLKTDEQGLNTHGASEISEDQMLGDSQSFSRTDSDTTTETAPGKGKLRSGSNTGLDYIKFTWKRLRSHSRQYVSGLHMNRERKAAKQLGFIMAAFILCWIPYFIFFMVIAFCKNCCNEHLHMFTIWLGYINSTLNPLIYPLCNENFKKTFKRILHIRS

[34] = target: Histamine H2 receptor (Homo sapiens) (UniProt P25021); settings: Compound concentration 10.0 uM
[35] = target: Histamine H3 receptor (Homo sapiens) (UniProt Q9Y5N1); settings: Compound concentration 10.0 uM
[36] = target: Histamine H4 receptor (Homo sapiens) (UniProt Q9H3N8); settings: Compound concentration 10.0 uM
[37] = target: Alpha-1A adrenergic receptor (Homo sapiens) (UniProt P35348); settings: Compound concentration 10.0 uM
[38] = target: Alpha-1B adrenergic receptor (Homo sapiens) (UniProt P35368); settings: Compound concentration 10.0 uM
[39] = target: Alpha-2A adrenergic receptor (Homo sapiens) (UniProt P08913); settings: Compound concentration 10.0 uM
[40] = target: Alpha-2B adrenergic receptor (Homo sapiens) (UniProt P18089); settings: Compound concentration 10.0 uM
[41] = target: Alpha-2C adrenergic receptor (Homo sapiens) (UniProt P18825); settings: Compound concentration 10.0 uM
[42] = target: Beta-1 adrenergic receptor (Homo sapiens) (UniProt P08588); settings: Compound concentration 10.0 uM
[43] = target: Beta-2 adrenergic receptor (Homo sapiens) (UniProt P07550); settings: Compound concentration 10.0 uM
[44] = target: Muscarinic acetylcholine receptor M1 (Homo sapiens) (UniProt P11229); settings: Compound concentration 10.0 uM
[45] = target: Muscarinic acetylcholine receptor M2 (Homo sapiens) (UniProt P08172); settings: Compound concentration 10.0 uM
Muscarinic acetylcholine receptor M2 (Homo sapiens), sequence (P08172 whole entry): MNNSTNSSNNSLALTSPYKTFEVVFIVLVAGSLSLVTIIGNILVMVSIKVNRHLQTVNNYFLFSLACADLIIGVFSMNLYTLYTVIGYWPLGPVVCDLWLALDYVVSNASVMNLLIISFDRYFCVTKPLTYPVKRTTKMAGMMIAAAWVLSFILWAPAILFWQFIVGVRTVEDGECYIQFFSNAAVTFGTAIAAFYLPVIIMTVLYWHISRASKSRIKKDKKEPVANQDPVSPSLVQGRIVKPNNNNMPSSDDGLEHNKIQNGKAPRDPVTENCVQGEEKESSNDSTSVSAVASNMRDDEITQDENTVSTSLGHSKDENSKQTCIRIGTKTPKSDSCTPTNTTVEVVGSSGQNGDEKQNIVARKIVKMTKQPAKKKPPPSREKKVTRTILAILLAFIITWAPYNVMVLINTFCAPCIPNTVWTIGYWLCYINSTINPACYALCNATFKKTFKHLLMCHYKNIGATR

[46] = target: Muscarinic acetylcholine receptor M3 (Homo sapiens) (UniProt P20309); settings: Compound concentration 10.0 uM
Muscarinic acetylcholine receptor M3 (Homo sapiens), sequence (P20309 whole entry, looked up): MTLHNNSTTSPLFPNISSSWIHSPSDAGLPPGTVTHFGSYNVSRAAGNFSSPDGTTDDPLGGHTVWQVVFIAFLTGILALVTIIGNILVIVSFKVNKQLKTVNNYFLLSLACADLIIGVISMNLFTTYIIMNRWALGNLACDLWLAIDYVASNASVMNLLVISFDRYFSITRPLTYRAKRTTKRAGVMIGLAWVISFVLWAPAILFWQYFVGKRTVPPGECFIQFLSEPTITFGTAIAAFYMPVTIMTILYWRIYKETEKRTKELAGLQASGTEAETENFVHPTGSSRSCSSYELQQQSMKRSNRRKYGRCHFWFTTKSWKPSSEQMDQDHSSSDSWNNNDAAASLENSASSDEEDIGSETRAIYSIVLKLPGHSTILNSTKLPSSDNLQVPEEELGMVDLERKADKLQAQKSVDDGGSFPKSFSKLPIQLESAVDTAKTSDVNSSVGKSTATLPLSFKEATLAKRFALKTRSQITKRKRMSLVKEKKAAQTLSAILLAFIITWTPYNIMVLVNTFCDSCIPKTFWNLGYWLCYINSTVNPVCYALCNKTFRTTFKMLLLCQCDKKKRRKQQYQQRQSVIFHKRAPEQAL

[47] = target: Muscarinic acetylcholine receptor M4 (Homo sapiens) (UniProt P08173); settings: Compound concentration 10.0 uM
Muscarinic acetylcholine receptor M4 (Homo sapiens), sequence (P08173 whole entry): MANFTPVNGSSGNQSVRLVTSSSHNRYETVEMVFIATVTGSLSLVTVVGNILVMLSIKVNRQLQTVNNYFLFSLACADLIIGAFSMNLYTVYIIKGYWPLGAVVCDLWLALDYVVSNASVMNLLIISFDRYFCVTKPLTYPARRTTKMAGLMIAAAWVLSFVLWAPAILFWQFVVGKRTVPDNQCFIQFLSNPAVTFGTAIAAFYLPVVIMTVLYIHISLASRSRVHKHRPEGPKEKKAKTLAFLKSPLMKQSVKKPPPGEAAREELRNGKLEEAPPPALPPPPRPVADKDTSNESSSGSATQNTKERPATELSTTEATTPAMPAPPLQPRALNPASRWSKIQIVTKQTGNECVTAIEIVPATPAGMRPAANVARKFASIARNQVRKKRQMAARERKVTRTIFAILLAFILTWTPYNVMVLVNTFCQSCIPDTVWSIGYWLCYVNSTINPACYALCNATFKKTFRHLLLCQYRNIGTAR

[48] = target: Muscarinic acetylcholine receptor M5 (Homo sapiens) (UniProt P08912); settings: Compound concentration 10.0 uM
[49] = target: Beta-3 adrenergic receptor (Homo sapiens) (UniProt P13945); settings: Compound concentration 10.0 uM
[50] = target: T8, GABA-A receptor; anion channel (Rattus norvegicus); settings: Compound concentration 10.0 uM; remark: listed apart in the source
Rattus norvegicus = species on record: Rattus norvegicus; settings: Compound concentration 10.0 uM
[51] = target: Alpha-1D adrenergic receptor (Homo sapiens) (UniProt P25100); settings: Compound concentration 10.0 uM
[52] = target: T7, Sigma intracellular receptor 2; settings: Compound concentration 10.0 uM
[53] = target: Sigma non-opioid intracellular receptor 1 (Homo sapiens) (UniProt Q99720); settings: Compound concentration 10.0 uM
[54] = target: Alpha-1B adrenergic receptor (Homo sapiens, UniProt P35368); assay: GPCRScan assay: inhibition of Alpha1B; parameters: radioligand conc. used [nm] 0.3 – 1.0, parental cells stable HEK
[55] = target: T9, Mas-related G-protein coupled receptor member X2 (Homo sapiens, UniProt Q96LB1); assay: PRESTO-Tango concentration response assay
[56] = target: T9, Mas-related G-protein coupled receptor member X2; assay: FLIPR assay

SMILES: CN(C)[C@@H]1CCN(c2cc(-c3ccccc3)nc3ccnn23)C1 [(R)-ZINC-3573]
- Ki [1]: 1620 nM
- Ki [2]: 3240 nM
- Ki ([3]; read-out: Ki): 1740 nM
- Ki ([3]; read-out: pKi (converted)): 1700 nM
- Ki ([4]; read-out: Ki): 2960 nM
- Ki ([4]; read-out: pKi (converted)): 2880 nM
- Ki ([5]; read-out: Ki): 748 nM
- Ki (D(2) dopamine receptor [6]; read-out: Ki): 369 nM
- Ki (D(2) dopamine receptor [6]; read-out: pKi (converted)): 355 nM
- Ki ([7]; read-out: Ki): 1110 nM
- Ki ([7]; read-out: pKi (converted)): 1100 nM
- Ki [8]: 1940 nM
- pKi [8]: 5.73
- Ki ([9]; read-out: Ki): 489 nM
- Ki ([9]; read-out: pKi (converted)): 479 nM
- inhibition [10]: 64.8%
- inhibition [11]: 52.5%
- inhibition [12]: 58.4%
- inhibition [13]: 7.26%
- inhibition [14]: 16.3%
- inhibition [15]: 16.7%
- inhibition [16]: 2.22%
- inhibition [17]: 76.6%
- inhibition [18]: 13.8%
- inhibition [19]: 58.9%
- inhibition [20]: 12.3%
- inhibition [21]: 38.9%
- inhibition (D(2) dopamine receptor [22]): 69.8%
- inhibition [23]: 28.1%
- inhibition [24]: 32.6%
- inhibition [25]: 6.36%
- inhibition [26]: 4.09%
- inhibition [27]: 45.4%
- inhibition [28]: 74.3%
- inhibition [29]: 21.3%
- inhibition [30]: 34.3%
- inhibition [31]: 13.6%
- inhibition [32]: 37.3%
- inhibition [33]: 39.3%
- inhibition [34]: 31.9%
- inhibition [35]: 38.6%
- inhibition [36]: 7.75%
- inhibition [37]: 21.8%
- inhibition [38]: 10.2%
- inhibition [39]: 32.9%
- inhibition [40]: 11.3%
- inhibition [41]: 40.5%
- inhibition [42]: 30.7%
- inhibition [43]: 14.4%
- inhibition [44]: 5.27%
- inhibition [45]: 20.1%
- inhibition [46]: 11.7%
- inhibition [47]: 28.8%
- inhibition [48]: -3.76%
- inhibition [49]: 12.7%
- inhibition [50]: 54.9%
- inhibition (Rattus norvegicus): 11.6%
- inhibition [51]: 20.4%
- inhibition [52]: 82.4%
- inhibition [53]: 28.6%

SMILES: CN(C)[C@H]1CCN(c2cc(-c3ccccc3)nc3ccnn23)C1 [(S)-ZINC-3573]
- Ki ([3]; read-out: Ki): 2960 nM
- Ki ([3]; read-out: pKi (converted)): 2880 nM
- Ki ([4]; read-out: Ki): 3630 nM
- Ki ([4]; read-out: pKi (converted)): 3550 nM
- Ki ([5]; read-out: Ki): 1090 nM
- Ki ([5]; read-out: pKi (converted)): 1080 nM
- Ki ([54]; read-out: Ki): 2290 nM
- Ki ([54]; read-out: pKi (converted)): 2110 nM
- Ki ([9]; read-out: Ki): 973 nM
- EC50 [55]: > 100000 nM (not active)
- EC50 [56]: > 100000 nM (not active)
- inhibition [10]: 19.3%
- inhibition [11]: 4.88%
- inhibition [12]: 63.2%
- inhibition [14]: 23.5%
- inhibition [15]: 33.3%
- inhibition [16]: -3.16%
- inhibition [17]: 64.5%
- inhibition [18]: 5.42%
- inhibition [19]: 69.1%
- inhibition [20]: 7.57%
- inhibition (D(2) dopamine receptor [22]): 2.85%
- inhibition [23]: 39%
- inhibition [24]: 8.3%
- inhibition [25]: 3.36%
- inhibition [26]: 2.83%
- inhibition [27]: 2.02%
- inhibition [28]: -1.89%
- inhibition [29]: 9.07%
- inhibition [30]: 2.89%
- inhibition [31]: 6.22%
- inhibition [33]: 16.4%
- inhibition [34]: 30%
- inhibition [35]: 13.4%
- inhibition [36]: 12.4%
- inhibition [37]: 34.2%
- inhibition [38]: 59.1%
- inhibition [39]: 40.2%
- inhibition [40]: 9.93%
- inhibition [41]: 16.4%
- inhibition [42]: 4.16%
- inhibition [43]: 27.4%
- inhibition [44]: 42.8%
- inhibition [45]: 26.6%
- inhibition [46]: 29.4%
- inhibition [47]: 34.4%
- inhibition [48]: 40.4%
- inhibition [49]: 18.9%
- inhibition [50]: 21.5%
- inhibition (Rattus norvegicus): 2.83%
- inhibition [51]: 33.5%
- inhibition [52]: 65.1%
- inhibition [53]: 22%
